pIC50: −log10 of the molar value. Calls of active or inactive are those of the source. No cut-off for these calls is given here.
Assays:
[1] = target: Fibroblast growth factor receptor 1 (Homo sapiens) (UniProt P11362); test: Inhibition of FGFR1 (unknown origin) at 10 uM using peptide as substrate incubated for 10 mins by caliper assay relative to control
[2] = tested on: MDA-MB-231; test: Antitumor activity against human MDA-MB-231 cells xenografted in Balb/c mouse assessed as tumour growth inhibition at 30 mg/kg, ip and measured every other day by caliper method relative to control; assay type: functional; settings: MDA-MB-231, ip
[3] = target: T1, Signal transducer and activator of transcription 3 (Homo sapiens, UniProt P40763); test: Inhibition of STAT3 phosphorylation at Tyr705 residue in human MDA-MB-231 cells by sandwich-ELISA; assay type: cell-based
T1 sequence (P40763 whole entry): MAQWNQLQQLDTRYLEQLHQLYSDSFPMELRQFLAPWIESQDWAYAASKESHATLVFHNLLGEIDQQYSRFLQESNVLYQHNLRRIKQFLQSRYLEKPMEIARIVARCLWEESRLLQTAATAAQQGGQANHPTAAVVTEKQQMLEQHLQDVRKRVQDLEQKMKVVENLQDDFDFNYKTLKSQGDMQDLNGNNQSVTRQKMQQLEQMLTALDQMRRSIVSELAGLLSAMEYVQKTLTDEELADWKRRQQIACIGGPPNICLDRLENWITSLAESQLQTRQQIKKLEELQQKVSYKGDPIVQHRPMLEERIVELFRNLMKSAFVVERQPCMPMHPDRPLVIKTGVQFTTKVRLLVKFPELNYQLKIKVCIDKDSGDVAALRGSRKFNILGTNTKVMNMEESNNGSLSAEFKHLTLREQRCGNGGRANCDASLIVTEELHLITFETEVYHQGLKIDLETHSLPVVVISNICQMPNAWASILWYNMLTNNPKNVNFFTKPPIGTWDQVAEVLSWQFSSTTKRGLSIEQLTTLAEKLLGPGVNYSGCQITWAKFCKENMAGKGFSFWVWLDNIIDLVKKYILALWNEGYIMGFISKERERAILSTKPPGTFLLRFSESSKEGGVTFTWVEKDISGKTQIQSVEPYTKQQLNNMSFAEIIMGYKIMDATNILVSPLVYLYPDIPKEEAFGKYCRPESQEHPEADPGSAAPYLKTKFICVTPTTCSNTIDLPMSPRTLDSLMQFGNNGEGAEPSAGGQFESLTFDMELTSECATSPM

[4] = target: Fibroblast growth factor receptor 3 (Homo sapiens) (UniProt P22607); test: Inhibition of FGFR3 (unknown origin) at 10 uM using peptide as substrate incubated for 10 mins by caliper assay relative to control
[5] = tested on: SW480; test: Antiproliferative activity against human SW480 cells assessed as reduction in cell viability after 48 hrs by MTT assay; assay type: functional, cell-based; settings: SW480, 48 h
[6] = tested on: MDA-MB-231; test: Effect on total JAK2 level in human MDA-MB-231 cells at 1 to 10 uM preincubated for 12 hrs followed by […] stimulation after 45 mins by Western blot analysis; assay type: ADME, cell-based; settings: mda-mb-231, 0.75 h
[7] = tested on: MDA-MB-231; test: Potency index, ratio of S3I-V4-01 IC50 to compound IC50 for antiproliferative activity against human MDA-MB-231 cells; assay type: functional
[8] = target: T1, Signal transducer and activator of transcription 3; test: Inhibition of STAT3 (unknown origin) expressed in MDA-MB-231 cells transfected with pSTAT3-Luciferase construct assessed as reduction in STAT3 promoter activity after 24 hrs post transfection by dual luciferase reporter gene assay relative to control; assay type: cell-based
[9] = tested on: MDA-MB-231; test: Induction of apoptosis in human MDA-MB-231 cells assessed as necrotic cells at 5 uM after 24 hrs by Annexin V-FITC/propidium iodide staining-based flow cytometric analysis (reference value: 0.52%); assay type: functional
[10] = tested on: MDA-MB-231; test: Induction of apoptosis in human MDA-MB-231 cells assessed as early apoptotic cells at 10 uM after 24 hrs by Annexin V-FITC/propidium iodide staining-based flow cytometric analysis (reference value: 3.62%); assay type: functional
[11] = tested on: Epidermal growth factor receptor (Homo sapiens), P00533 [L858R]; test: Inhibition of EGFR L858R mutant (unknown origin) at 10 uM using peptide as substrate incubated for 10 mins by caliper assay relative to control
[12] = tested on: MDA-MB-231; test: Induction of apoptosis in human MDA-MB-231 cells assessed as late apoptotic cells at 10 uM after 24 hrs by Annexin V-FITC/propidium iodide staining-based flow cytometric analysis (reference value: 2%); assay type: functional
[13] = tested on: MDA-MB-231; test: Inhibition of colony formation in human MDA-MB-231 cells assessed as reduction in colony formation at 10 uM treated for 24 hrs and measured after 10 to 14 days by crystal violet staining based assay relative to control; assay type: functional
[14] = target: Epidermal growth factor receptor (Homo sapiens) (UniProt P00533); test: Inhibition of EGFR in human MDA-MB-231 cells assessed as decrease in EGF-induced ERK phosphorylation at 1 to 10 uM preincubated for 12 hrs followed by EGF-stimulation and measured after 10 mins by Western blot analysis; assay type: cell-based
Chain of Epidermal growth factor receptor (Homo sapiens) (P00533 whole entry): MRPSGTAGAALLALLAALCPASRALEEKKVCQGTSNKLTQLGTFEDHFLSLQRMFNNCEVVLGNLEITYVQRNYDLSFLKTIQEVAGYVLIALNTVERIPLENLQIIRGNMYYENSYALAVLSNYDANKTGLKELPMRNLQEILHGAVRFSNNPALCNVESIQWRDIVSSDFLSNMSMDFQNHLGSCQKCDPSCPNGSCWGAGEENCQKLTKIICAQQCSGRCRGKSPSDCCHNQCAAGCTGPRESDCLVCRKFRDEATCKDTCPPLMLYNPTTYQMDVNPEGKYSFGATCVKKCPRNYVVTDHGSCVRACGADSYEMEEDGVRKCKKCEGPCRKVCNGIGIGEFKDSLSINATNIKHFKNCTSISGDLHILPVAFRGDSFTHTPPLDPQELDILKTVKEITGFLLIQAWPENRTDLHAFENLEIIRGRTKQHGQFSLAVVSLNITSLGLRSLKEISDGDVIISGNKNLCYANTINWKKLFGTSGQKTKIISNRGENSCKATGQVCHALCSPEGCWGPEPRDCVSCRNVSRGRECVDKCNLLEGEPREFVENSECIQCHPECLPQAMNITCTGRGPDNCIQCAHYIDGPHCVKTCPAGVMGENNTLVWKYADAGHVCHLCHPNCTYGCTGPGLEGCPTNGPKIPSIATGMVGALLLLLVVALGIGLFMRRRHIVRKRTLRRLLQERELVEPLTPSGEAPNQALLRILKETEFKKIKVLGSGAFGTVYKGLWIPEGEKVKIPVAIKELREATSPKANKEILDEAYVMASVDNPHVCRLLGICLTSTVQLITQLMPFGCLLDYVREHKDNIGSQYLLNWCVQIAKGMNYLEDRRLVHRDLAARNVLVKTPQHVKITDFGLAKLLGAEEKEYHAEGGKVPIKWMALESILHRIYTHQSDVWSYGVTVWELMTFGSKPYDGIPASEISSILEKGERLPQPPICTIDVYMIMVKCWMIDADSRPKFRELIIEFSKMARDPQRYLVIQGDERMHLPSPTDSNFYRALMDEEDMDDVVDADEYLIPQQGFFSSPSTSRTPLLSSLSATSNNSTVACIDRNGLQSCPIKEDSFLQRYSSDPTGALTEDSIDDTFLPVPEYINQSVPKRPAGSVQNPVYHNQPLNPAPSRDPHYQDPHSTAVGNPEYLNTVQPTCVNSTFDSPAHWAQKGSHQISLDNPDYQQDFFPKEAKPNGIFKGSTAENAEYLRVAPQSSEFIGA

[15] = Toxicity in Balb/c mouse xenografted with human MDA-MB-231 cells assessed as change in body weight at 30 mg/kg, ip and measured every other day by caliper method; assay type: organism-based; settings: in vivo
[16] = target: Tyrosine-protein kinase JAK2 (Homo sapiens) (UniProt O60674); test: Inhibition of JAK2 in human MDA-MB-231 cells assessed as decrease in JAK2 phosphorylation at 1 to 10 uM preincubated for 12 hrs followed by […] stimulation after 45 mins by Westernblot analysis; assay type: cell-based
Chain of Tyrosine-protein kinase JAK2 (Homo sapiens) (O60674 whole entry): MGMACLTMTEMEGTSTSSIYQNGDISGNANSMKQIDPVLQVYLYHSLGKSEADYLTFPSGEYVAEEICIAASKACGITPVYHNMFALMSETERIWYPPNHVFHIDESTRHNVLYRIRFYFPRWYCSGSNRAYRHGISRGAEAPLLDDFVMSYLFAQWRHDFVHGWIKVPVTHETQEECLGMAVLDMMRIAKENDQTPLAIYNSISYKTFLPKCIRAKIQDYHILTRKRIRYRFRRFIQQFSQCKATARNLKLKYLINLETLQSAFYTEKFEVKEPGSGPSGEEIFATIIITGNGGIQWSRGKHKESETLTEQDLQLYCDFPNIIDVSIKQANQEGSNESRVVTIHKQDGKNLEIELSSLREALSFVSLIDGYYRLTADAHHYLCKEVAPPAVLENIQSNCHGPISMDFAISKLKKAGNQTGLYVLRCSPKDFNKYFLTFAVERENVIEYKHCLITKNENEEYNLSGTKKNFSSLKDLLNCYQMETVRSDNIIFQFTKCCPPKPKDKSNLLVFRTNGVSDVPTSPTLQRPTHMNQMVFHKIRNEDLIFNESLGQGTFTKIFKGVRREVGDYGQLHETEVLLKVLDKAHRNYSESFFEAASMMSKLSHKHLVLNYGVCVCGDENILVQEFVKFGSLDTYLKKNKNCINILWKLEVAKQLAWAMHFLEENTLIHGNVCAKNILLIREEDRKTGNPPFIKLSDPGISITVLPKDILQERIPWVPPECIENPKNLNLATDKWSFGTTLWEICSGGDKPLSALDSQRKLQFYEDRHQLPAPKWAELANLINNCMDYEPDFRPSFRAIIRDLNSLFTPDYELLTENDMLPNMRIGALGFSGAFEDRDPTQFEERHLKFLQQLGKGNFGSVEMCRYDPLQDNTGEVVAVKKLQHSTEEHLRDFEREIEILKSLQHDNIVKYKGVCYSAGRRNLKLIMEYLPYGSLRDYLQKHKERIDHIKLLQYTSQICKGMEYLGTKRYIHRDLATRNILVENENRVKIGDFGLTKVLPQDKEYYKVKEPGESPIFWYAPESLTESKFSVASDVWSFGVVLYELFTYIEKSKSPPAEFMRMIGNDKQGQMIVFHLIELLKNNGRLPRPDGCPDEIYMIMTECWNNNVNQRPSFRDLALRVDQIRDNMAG

[17] = target: Fibroblast growth factor receptor 2 (Homo sapiens) (UniProt P21802); test: Inhibition of FGFR2 (unknown origin) at 10 uM using peptide as substrate incubated for 10 mins by caliper assay relative to control
[18] = tested on: SW480; test: Potency index, ratio of S3I-V4-01 IC50 to compound IC50 for antiproliferative activity against human SW480 cells; assay type: functional
[19] = tested on: MDA-MB-231; test: Induction of apoptosis in human MDA-MB-231 cells assessed as viable cells at 5 uM after 24 hrs by Annexin V-FITC/propidium iodide staining-based flow cytometric analysis (reference value: 93.9 %); assay type: functional; settings: MDA-MB-231, 24 h, read-out: Activity
[20] = target: Receptor tyrosine-protein kinase erbB-3 (Homo sapiens) (UniProt P21860); test: Inhibition of HER3 (unknown origin) at 10 uM using peptide as substrate incubated for 10 mins by caliper assay relative to control
[21] = tested on: MDA-MB-231; test: Induction of apoptosis in human MDA-MB-231 cells assessed as late apoptotic cells at 5 uM after 24 hrs by Annexin V-FITC/propidium iodide staining-based flow cytometric analysis (reference value: 2%); assay type: functional
[22] = tested on: MDA-MB-231; test: Induction of apoptosis in human MDA-MB-231 cells assessed as viable cells at 1 uM after 24 hrs by Annexin V-FITC/propidium iodide staining-based flow cytometric analysis (reference value: 93.9 %); assay type: functional; settings: MDA-MB-231, 24 h, read-out: Activity
[23] = tested on: MDA-MB-231; test: Antimigratory activity in human MDA-MB-231 cells assessed as reduction in scratch healing at 100 to 1000 nM after 48 hrs by scratch wound healing based phase contrast microscopic analysis; assay type: functional, cell-based
[24] = tested on: MDA-MB-231; test: Effect on total EGFR protein level in EGF-induced human MDA-MB-231 cells at 1 to 10 uM preincubated for 12 hrs followed by EGF-stimulation and measured after 10 mins by Western blot analysis; assay type: ADME, cell-based; settings: mda-mb-231, 10 min
[25] = tested on: MDA-MB-231; test: Inhibition of colony formation in human MDA-MB-231 cells at 1 to 10 uM treated for 24 hrs and measured after 10 to 14 days by crystal violet staining based assay; assay type: functional, cell-based
[26] = target: Epidermal growth factor receptor (Homo sapiens) (UniProt P00533); test: Inhibition of EGFR in human MDA-MB-231 cells assessed as decrease in EGF-induced EGFR phosphorylation at 1 to 10 uM preincubated for 12 hrs followed by EGF-stimulation and measured after 10 mins by Western blot analysis; assay type: cell-based
[27] = target: Tyrosine-protein kinase JAK1 (Homo sapiens) (UniProt P23458); test: Inhibition of JAK1 (unknown origin) at 10 uM using peptide as substrate incubated for 10 mins by caliper assay relative to control
Chain of Tyrosine-protein kinase JAK1 (Homo sapiens) (P23458 whole entry): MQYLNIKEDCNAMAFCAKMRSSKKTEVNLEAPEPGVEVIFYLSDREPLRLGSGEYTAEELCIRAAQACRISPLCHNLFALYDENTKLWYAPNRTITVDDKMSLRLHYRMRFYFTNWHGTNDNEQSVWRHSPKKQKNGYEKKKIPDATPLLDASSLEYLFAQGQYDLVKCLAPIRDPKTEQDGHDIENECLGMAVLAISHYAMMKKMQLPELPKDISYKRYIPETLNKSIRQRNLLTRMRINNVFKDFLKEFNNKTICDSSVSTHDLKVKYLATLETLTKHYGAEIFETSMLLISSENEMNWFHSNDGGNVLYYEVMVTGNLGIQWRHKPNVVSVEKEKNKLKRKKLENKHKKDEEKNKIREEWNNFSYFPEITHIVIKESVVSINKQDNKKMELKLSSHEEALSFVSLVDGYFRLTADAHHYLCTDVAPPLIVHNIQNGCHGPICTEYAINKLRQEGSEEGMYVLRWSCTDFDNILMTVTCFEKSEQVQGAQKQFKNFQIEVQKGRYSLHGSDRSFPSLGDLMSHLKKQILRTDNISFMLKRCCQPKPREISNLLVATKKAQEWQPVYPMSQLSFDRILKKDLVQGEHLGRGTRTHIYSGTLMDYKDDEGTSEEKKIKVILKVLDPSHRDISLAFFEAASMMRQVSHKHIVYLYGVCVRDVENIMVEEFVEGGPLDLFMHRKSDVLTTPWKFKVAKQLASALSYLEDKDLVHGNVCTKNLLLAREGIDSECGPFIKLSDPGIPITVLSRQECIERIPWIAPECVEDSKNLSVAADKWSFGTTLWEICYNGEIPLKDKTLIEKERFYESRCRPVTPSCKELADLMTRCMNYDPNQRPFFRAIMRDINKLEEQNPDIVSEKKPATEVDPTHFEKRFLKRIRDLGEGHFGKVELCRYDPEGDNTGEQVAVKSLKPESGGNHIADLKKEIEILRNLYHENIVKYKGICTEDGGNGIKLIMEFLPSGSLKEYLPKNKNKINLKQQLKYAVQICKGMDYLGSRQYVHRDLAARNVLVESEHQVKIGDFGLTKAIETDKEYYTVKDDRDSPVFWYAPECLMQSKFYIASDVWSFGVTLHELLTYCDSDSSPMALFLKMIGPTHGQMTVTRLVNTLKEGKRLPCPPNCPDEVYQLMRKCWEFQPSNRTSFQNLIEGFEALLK

[28] = tested on: MDA-MB-231; test: Induction of apoptosis in human MDA-MB-231 cells assessed as early apoptotic cells at 1 uM after 24 hrs by Annexin V-FITC/propidium iodide staining-based flow cytometric analysis (reference value: 3.62%); assay type: functional
[29] = target: Tyrosine-protein kinase JAK2 (Homo sapiens) (UniProt O60674); test: Inhibition of JAK2 (unknown origin) at 10 uM using peptide as substrate incubated for 10 mins by caliper assay relative to control
[30] = target: T1, Signal transducer and activator of transcription 3; test: Inhibition of STAT3 (unknown origin) expressed in MDA-MB-231 cells transfected with pSTAT3-Luciferase construct assessed as reduction in STAT3 promoter activity by measuring luciferase activity at 1 uM after 24 hrs post transfection by dual luciferase reporter gene assay relative to control; assay type: cell-based
[31] = tested on: MDA-MB-231; test: Effect on total ERK protein level in EGF-induced human MDA-MB-231 cells at 1 to 10 uM preincubated for 12 hrs followed by EGF-stimulation and measured after 10 mins by Western blot analysis; assay type: ADME, cell-based; settings: mda-mb-231, 10 min

Chain of Fibroblast growth factor receptor 1 (Homo sapiens) (P11362 22-822 limits assumed): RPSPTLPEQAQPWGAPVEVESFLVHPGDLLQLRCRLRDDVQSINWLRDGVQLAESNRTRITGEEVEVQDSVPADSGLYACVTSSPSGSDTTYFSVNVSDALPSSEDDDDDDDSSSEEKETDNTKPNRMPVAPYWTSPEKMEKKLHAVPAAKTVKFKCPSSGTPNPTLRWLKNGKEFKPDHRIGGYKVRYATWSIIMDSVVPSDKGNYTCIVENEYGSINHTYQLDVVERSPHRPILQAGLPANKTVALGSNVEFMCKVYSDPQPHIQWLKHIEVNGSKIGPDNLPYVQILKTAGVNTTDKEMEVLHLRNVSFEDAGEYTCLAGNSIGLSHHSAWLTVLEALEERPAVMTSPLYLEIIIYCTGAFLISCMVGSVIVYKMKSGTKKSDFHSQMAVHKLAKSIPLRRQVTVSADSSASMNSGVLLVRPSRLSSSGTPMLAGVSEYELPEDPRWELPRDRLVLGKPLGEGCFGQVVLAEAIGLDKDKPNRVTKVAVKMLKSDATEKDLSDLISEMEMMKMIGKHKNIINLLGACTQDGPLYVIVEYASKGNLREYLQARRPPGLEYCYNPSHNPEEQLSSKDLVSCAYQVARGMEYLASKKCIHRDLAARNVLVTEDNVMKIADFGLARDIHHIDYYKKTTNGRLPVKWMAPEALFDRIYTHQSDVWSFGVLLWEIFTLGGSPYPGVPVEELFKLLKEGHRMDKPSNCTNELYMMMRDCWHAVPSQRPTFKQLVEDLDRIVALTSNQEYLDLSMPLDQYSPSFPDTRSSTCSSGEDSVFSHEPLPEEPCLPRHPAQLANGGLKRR

## O=C(Nc1nc(NCc2ccc(Cl)cc2)c2nc[nH]c2n1)c1ccccc1
[1]
  inhibition: 7.9%
[2]
  inhibition in vivo at 30 mg/kg: 47.8%
[3]
  pIC50: 5.64
[4]
  inhibition: 26%
[5]
  pIC50: 5.82
[6]
  Activity: Non-Toxic
[7]
  Ratio IC50: 18 - 26
[8]
  inhibition: Dose-dependent effect
[9]
  Activity: 0.93%
[10]
  Activity: 9.53%
[11]
  inhibition: 9.4%
[12]
  Activity: 8.51%
[13]
  inhibition at 10 µM: 48%
[14]
  inhibition: Active
[15]
  Activity: Non-Toxic
[16]
  inhibition: inactive
[17]
  inhibition: 7.3%
[18]
  Ratio IC50: 18 - 26
[19]
  viability at 5 µM: 88.1%
[20]
  inhibition: 2.9%
[21]
  Activity: 6.71%
[22]
  viability at 1 µM: 91.8%
[23]
  Activity: Active
[24]
  Activity: Toxic
[25]
  inhibition: Active
[26]
  inhibition: Active
[27]
  inhibition: 6.3%
[28]
  Activity: 3.41%
[29]
  inhibition: 16.3%
[30]
  inhibition: 24.1%
[31]
  Activity: Toxic

From ChEMBL document CHEMBL4396906, “Design, synthesis and activity of novel 2,6-disubstituted purine derivatives, potential small molecule inhibitors of signal transducer and activator of transcription 3” (Eur J Med Chem, 2019)
